Measurements published in article PMC11672299, “Conjugation of Polycationic Peptides Extends the Efficacy Spectrum of β‐Lactam Antibiotics” (Advanced Science, 2024).

Tests used:
[1] = test system: S. aureus LAC* lux USA300 (MRSA); assay: MIC by broth microdilution; format: cell-based; settings: Staphylococcus aureus
Method: (§1) The minimum inhibitory concentration (MIC) of the β‐lactam–peptide conjugates was determined by broth microdilution as previously described.^[ [17] ^] Briefly, in cation‐adjusted MHB II medium, a twofold serial dilution of the compounds was prepared in 96‐well round‐bottom polystyrene or polypropylene microtiter plates with each well containing 50 µL. The plates were inoculated with 50 µL bacterial suspension and the final inoculum, in a total volume of 100 µL, contained 5 × 10^5 CFU mL^−1. The microplates were incubated for 20 h at 37 ± 1 °C. The lowest concentration preventing visible bacterial growth was considered the MIC value. For susceptibility testing of combinations of β‐lactamase‐inhibitors with either a β‐lactam antibiotic or a β‐lactam–peptide conjugate, fixed concentrations of the inhibitors according to the EUCAST (European Committee on Antimicrobial Susceptibility Testing) guidelines (clavulanic acid = 2 mg L^−1, avibactam = 4 mg L^−1) were used.

[2] = test system: HEPG2 cells; assay: Cytotoxicity assay (PrestoBlue viability); format: cell-based, human; settings: HEPG2, up to 512 µg mL^−1, 24 h
Method: (§2) To exclude any cytotoxic effects on mammalian cells prior to in vivo studies, the viability of the cell lines HEP‐G2 (hepatocellular carcinoma) and HEK‐293 (human […] embryonal kidney) after incubation with different concentrations of the β‐lactam–peptide conjugates were determined. For the viability assay, 10^4 cells per well were seeded in a 96‐well half area microplate and incubated overnight in a humidified 5% CO2 atmosphere at 37 °C. The next day, the conjugates were twofold serially diluted in PBS and added to the cells to obtain final concentrations ranging from 1–512 µg mL^−1. Cells were then incubated with the antibiotics in a humidified 5% CO2 atmosphere at 37 °C for a further 24 h. PrestoBlue HS Cell Viability Reagent was then added to the wells and the plates again were incubated in a humidified 5% CO2 atmosphere at 37 °C for 1 h. Afterwards, the absorption at 570 nm and 600 nm (reference) using an Infinite M200 PRO microplate reader (Tecan, Männedorf, Switzerland) was measured. Cell viability was calculated using the untreated control cells as a reference for 100% alive cells.

[3] = test system: HEK‐293 cells; assay: Cytotoxicity assay (PrestoBlue viability); format: cell-based, human; settings: HEK‐293, up to 512 µg mL^−1, 24 h
Method: as §2

[4] = test system: A. bohemicus DSM 100419; assay: MIC by broth microdilution; format: cell-based; settings: median (n = 3)
Method: as §1

SMILES: CC(C)(O/N=C(\C(=O)N[C@@H]1C(=O)N2C(C(=O)[O-])=C(C[n+]3ccccc3)CS[C@H]12)c1csc(N)n1)C(=O)O [CTZ, ceftazidime, reference compound]
- MIC [1]: 16 µg/mL
- cytotoxicity (cell viability) [2]: no significant cytotoxicity
- cytotoxicity (cell viability) [3]: no significant cytotoxicity

SMILES: CC(C)(O/N=C(\C(=O)N[C@@H]1C(=O)N2C(C(=O)[O-])=C(C[n+]3ccccc3)CS[C@H]12)c1csc(N)n1)C(=O)NCCCCCCN1C(=O)CC(SC[C@H](NC(=O)[C@H](CCCNC(=N)N)NC(=O)[C@H](CCCNC(=N)N)NC(=O)[C@H](CCCNC(=N)N)NC(=O)[C@H](CCCNC(=N)N)NC(=O)[C@H](CCCNC(=N)N)NC(=O)[C@@H](N)CCCNC(=N)N)C(N)=O)C1=O (stereo partly shown) [CTZ-R6]
- antimicrobial activity (rank among CTZ–peptide conjugates) [4]: most potent conjugates
